Data: US20140356325A1, “NOVEL 2'-C-METHYL NUCLEOSIDE DERIVATIVE COMPOUNDS” (Ligand Pharmaceuticals Incorporated, priority 2012, published 2014)

Legend:
[1] = test system: purine salvage pathway enzymes such as adenosine deaminase and purine nucleoside phosphorylase; conditions: cited from earlier work
[2] = test system: HCV replication in human liver tissue; assay: HCV-infected human liver slice assay; format: cell-based
Description: Inhibition of HCV replication in human liver tissue is evaluated using the following assay. Procurement. Liver from a brain-dead HCV antibody-positive human patient is perfused with ice-cold Viaspan (Dupont Pharmaceutical) preservation solution and received on ice in Viaspan. Precision-cut liver slices of ˜200-250 μm thickness and […] are prepared and cultured in Waymouth's cell culture medium (Gibco, Inc.) that is supplemented with 10% fetal bovine serum and 10 mL/L Fungi-Bact at 37° C., and gassed with carbogen (95% O2, 5% CO2) at 0.75 liters/min. Tissue slices are maintained in culture for 72 h. Cell culture medium containing test compound in solution is changed on a daily basis. At appropriate times of liver slice incubation, liver slices and medium are collected for analysis of HCV RNA (tissue and medium) and nucleotide levels (NTP). All collected media and tissue slices are maintained in liquid N2 until analysis. Medium and tissue samples are analyzed for HCV RNA levels according to published procedures (Bonacini et. al., 1999) which utilize an automated, multicycle, polymerase chain reaction (PCR) based technique. This assay has a lower limit of detection for HCV RNA of 100 viral copies/ml.

Structure (SMILES)	melting point	further results
C[C@@]1(O)[C@H](O)[C@@H](CO)O[C@H]1n1cnc2c(N)ncnc21 [2′-C-methyladenosine]		resistance to metabolism by purine salvage pathway enzymes [1]: increased resistance to metabolism
C[C@@]1(O)[C@H](O)[C@@H](CO)O[C@H]1n1cnc2c(=O)[nH]c(N)nc21 [2′-C-methylguanosine]		HCV RNA levels present in the liver slice culture media ([2]; relative to control, untreated slices, following incubation): decreased; amount of HCV RNA released into the culture medium ([2]; treatment for 72 h, medium from 48-72 h): decreases
CC1CC1COc1nc(N)nc2c1ncn2[C@@H]1O[C@H](CO[P@@]2(=O)OCC[C@@H](c3cccc(Cl)c3)O2)[C@H]2OC(=O)O[C@]21C (stereo partly drawn) [Compound 135, 2(R)-(2-Amino-6-(2-methylcyclopropylmethoxy)-9(H)-purinyl)-4(R)-(4(S)-(3-chlorophenyl)-2-oxo-1,3,2-dioxaphosphorinan-2(R)-yloxymethyl)-1(R)-methyl-7-oxo-3,6,8-trioxa-cis-bicyclo[3.3.0]octane]	88 to 90 °C	
COC(C)(C)CCOc1nc(N)nc2c1ncn2[C@@H]1O[C@H](CO[P@@]2(=O)OCC[C@@H](c3cccc(Cl)c3)O2)[C@H]2OC(=O)O[C@]21C [Compound 138, 2(R)-(2-Amino-6-(3-methyl-3-methoxybutyloxy)-9 (H)-purinyl)-4(R)-(4(S)-(3-chlorophenyl)-2-oxo-1,3,2-dioxaphosphorinan-2(R)-yloxymethyl)-1(R)-methyl-7-oxo-3,6,8-trioxa-cis-bicyclo[3.3.0]octane]	93 to 96 °C	
C[C@@]12OC(=O)O[C@@H]1[C@@H](CO[P@@]1(=O)OCC[C@@H](c3cccc(Cl)c3)O1)O[C@H]2n1cnc2c(OCC3CC4CCC3C4)nc(N)nc21 (stereo partly drawn) [Compound 139, 2(R)-(2-Amino-6-(2-bicyclo[2.2.1]heptanylmethoxy)-9(H)-purinyl)-4(R)-(4(S)-(3-chlorophenyl)-2-oxo-1,3,2-dioxaphosphorinan-2(R)-yloxymethyl)-1(R)-methyl-7-oxo-3,6,8-trioxa-cis-bicyclo[3.3.0]octane]	99 to 101 °C	
C[C@@]12OC(=O)O[C@@H]1[C@@H](CO[P@@]1(=O)OCC[C@@H](c3cccc(Cl)c3)O1)O[C@H]2n1cnc2c(OCC3CCC3)nc(N)nc21 [Compound 140, 2(R)-(2-Amino-6-cyclobutylmethoxy-9(H)-purinyl)-4(R)-(4(S)-(3-chlorophenyl)-2-oxo-1,3,2-dioxaphosphorinan-2(R)-yloxymethyl)-1(R)-methyl-7-oxo-3,6,8-trioxa-cis-bicyclo[3.3.0]octane]	92 to 94 °C	
CCC(CC)COc1nc(N)nc2c1ncn2[C@@H]1O[C@H](CO[P@@]2(=O)OCC[C@@H](c3cccc(Cl)c3)O2)[C@H]2OC(=O)O[C@]21C [Compound 143, 2(R)-(2-Amino-6-(2-ethylbutyloxy)-9(H)-purinyl)-4(R)-(4(S)-(3-chlorophenyl)-2-oxo-1,3,2-dioxaphosphorinan-2(R)-yloxymethyl)-1(R)-methyl-7-oxo-3,6,8-trioxa-cis-bicyclo[3.3.0]octane]	72 to 75 °C	
C[C@@]12OC(=O)O[C@@H]1[C@@H](CO[P@@]1(=O)OCC[C@@H](c3cccc(Cl)c3)O1)O[C@H]2n1cnc2c(OCC3CCCCC3)nc(N)nc21 [Compound 146, 2(R)-(2-Amino-6-cyclohexylmethoxy-9(H)-purinyl)-4(R)-(4(S)-(3-chlorophenyl)-2-oxo-1,3,2-dioxaphosphorinan-2(R)-yloxymethyl)-1(R)-methyl-7-oxo-3,6,8-trioxa-cis-bicyclo[3.3.0]octane]	101 to 103 °C	
CC(C)(C)COc1nc(N)nc2c1ncn2[C@@H]1O[C@H](CO[P@@]2(=O)OCC[C@@H](c3cccc(Cl)c3)O2)[C@H]2OC(=O)O[C@]21C [Compound 147, 2(R)-(2-Amino-6-(2,2-dimethylpropyloxy)-9(H)-purinyl)-4(R)-(4(S)-(3-chlorophenyl)-2-oxo-1,3,2-dioxaphosphorinan-2(R)-yloxymethyl)-1(R)-methyl-7-oxo-3,6,8-trioxa-cis-bicyclo[3.3.0]octane]	88 to 91 °C	
CCOC(COc1nc(N)nc2c1ncn2[C@@H]1O[C@H](CO[P@@]2(=O)OCC[C@@H](c3cccc(Cl)c3)O2)[C@H]2OC(=O)O[C@]21C)OCC [Compound 149, 2(R)-(2-Amino-6-(2,2-diethoxyethoxy)-9(H)-purinyl)-4(R)-(4(S)-(3-chlorophenyl)-2-oxo-1,3,2-dioxaphosphorinan-2(R)-yloxymethyl)-1(R)-methyl-7-oxo-3,6,8-trioxa-cis-bicyclo[3.3.0]octane]	72 to 75 °C	
CCCCCOc1nc(N)nc2c1ncn2[C@@H]1O[C@H](CO[P@@]2(=O)OCC[C@@H](c3cccc(Cl)c3)O2)[C@H]2OC(=O)O[C@]21C [Compound 150, 2(R)-(2-Amino-6-pentyloxy-9(H)-purinyl)-4(R)-(4(S)-(3-chlorophenyl)-2-oxo-1,3,2-dioxaphosphorinan-2(R)-yloxymethyl)-1(R)-methyl-7-oxo-3,6,8-trioxa-cis-bicyclo[3.3.0]octane]	80 to 82 °C	
CC(C)Oc1nc(N)nc2c1ncn2[C@@H]1O[C@H](CO[P@@]2(=O)OCC[C@@H](c3cccc(Cl)c3)O2)[C@H]2OC(=O)O[C@]21C [Compound 151, 2(R)-(2-Amino-6-isopropyloxy-9(H)-purinyl)-4(R)-(4(S)-(3-chlorophenyl)-2-oxo-1,3,2-dioxaphosphorinan-2(R)-yloxymethyl)-1(R)-methyl-7-oxo-3,6,8-trioxa-cis-bicyclo[3.3.0]octane]	106 to 110 °C	
CCOc1nc(N)nc2c1ncn2[C@@H]1O[C@H](CO[P@@]2(=O)OCC[C@@H](c3ccccc3)O2)[C@H]2OC(=O)O[C@]21C [Compound 182, 2(R)-(2-Amino-6-ethoxy-9(H)-purinyl)-4(R)-(4(S)-phenyl-2-oxo-1,3,2-dioxaphosphorinan-2(R)-yloxymethyl)-1(R)-methyl-7-oxo-3,6,8-trioxa-cis-bicyclo[3.3.0]octane]	105 to 107 °C	
CCOc1nc(N)nc2c1ncn2[C@@H]1O[C@H](CO[P@@]2(=O)OCC[C@@H](c3cccc(Cl)c3)O2)[C@@H](OC(=O)C2CCCC2)[C@@]1(C)O [Compound 186, 2(R)-(2-Amino-6-ethoxy-9(H)-purinyl)-5(R)-(4(S)-(3-chlorophenyl)-2-oxo-1,3,2-dioxaphosphorinan-2(R)-yloxymethyl)-3(R)-hydroxy-3(R)-methyl-4(R)-cyclopentylcarboxy-tetrahydrofuran]	106 to 111 °C	
